System: Serum RLP-C
Assay: 12-week placebo-controlled study (MARINE), serum RLP-C by immunoseparation assay, patients with fasting TG ≥500 mg/dL
Assay type: in vivo, human
Conditions: for Median Change from Baseline in RLP-C vs. Placebo: Hodges-Lehmann estimate; for Median Change from Baseline in RLP-C vs. Placebo / RLP-C Concentration End of Treatment: week 12; for RLP-C Concentration Change: median change from baseline to week 12; for RLP-C Concentration Baseline / RLP-C Concentration End of Treatment: median; for RLP-C Concentration Baseline: before treatment
Description: A multi-center, placebo-controlled randomized, double-blind, 12-week study with an open-label extension was performed to evaluate the efficacy and safety of AMR101 in patients with fasting triglyceride levels≥500 mg/dL. The primary objective of the study was to determine the efficacy of >96%, by weight of all fatty acids present, ethyl-EPA (“AMR101”) 2 g daily and 4 g daily, compared to placebo, in lowering fasting TG levels in patients with fasting TG levels≥500 mg/dL and ≤1500 mg/dL (≥5.65 mmol/L and ≤16.94 mmol/L). The population for this study was men and women (women of childbearing potential needed to be on contraception or practice abstinence) >18 years of age with a body mass index≤45 kg/m^2 who were not on lipid-altering therapy or were not currently on lipid-altering therapy. Patients currently on statin therapy (with or without ezetimibe) were evaluated by the investigator as to whether this therapy could be safely discontinued at screening, or if it should have been continued. If statin therapy (with or without ezetimibe) was to be continued, dose(s) must have been stable for ≥4 weeks prior to randomization. Patients taking non-statin, lipid-altering medications (niacin>200 mg/day, fibrates, fish oil, other products containing omega-3 fatty acids, or other herbal products or dietary supplements with potential lipid-altering effects), either alone or in combination with statin therapy (with or without ezetimibe), must have been able to safely discontinue non-statin, lipid-altering therapy at screening. Approximately 240 patients were randomized at approximately 50 centers in North America, South America, Central America, Europe, India, and South Africa. The study was a 58- to 60-week, Phase 3, multi-center study consisting of 3 study periods: (1) a 6- to 8-week screening period that included a diet and lifestyle stabilization and washout period and a TG qualifying period; (2) a 12-week, double-blind, randomized, placebo-controlled treatment period; and (3) a 40-week, open-label, extension period. After confirmation of qualifying fasting TG values, eligible patients entered a 12-week, randomized, double-blind treatment period. At Visit 4 (Week 0), patients were randomly assigned to one of the following treatment groups: • AMR101 2 g daily, • AMR101 4 g daily, or • Placebo. Eligible patients were randomly assigned at Visit 4 (Week 0) to orally receive AMR101 2 g daily, AMR101 4 g daily, or placebo for the 12-week double-blind treatment period. AMR101 was provided in 1 g liquid-filled, oblong, gelatin capsules. The matching placebo capsule was filled with light liquid paraffin and contained 0 g of AMR101. During the double-blind treatment period, patients took 2 capsules (AMR101 or matching placebo) in the morning and 2 in the evening for a total of 4 capsules per day. Patients in the AMR101 2 g/day treatment group received 1 AMR101 1 g capsule and 1 matching placebo capsule in the morning and in the evening. Patients in the AMR101 4 g/day treatment group received 2 AMR101 1 g capsules in the morning and evening. The primary efficacy variable for the double-blind treatment period was percent change in TG from baseline to Week 12 endpoint. […]

[1] = 2 g/day, Baseline TG >750 mg/dl
[2] = 2 g/day, Baseline TG ≤750 mg/dl
[3] = 4 g/day, Baseline TG >750 mg/dl
[4] = 4 g/day, Baseline TG ≤750 mg/dl

CC/C=C\C/C=C\C/C=C\C/C=C\C/C=C\CCCC(=O)OCC [AMR101, ethyl-EPA]
RLP-C compared to placebo (2 g/day treatment group, 12 weeks): reduced RLP-C compared to placebo | Median Change from Baseline in RLP-C vs. Placebo [1]: −25.4% | RLP-C Concentration Change [1]: −10.7% | RLP-C Concentration Baseline [1]: 66.0 mg/dL | RLP-C Concentration End of Treatment [1]: 65.0 mg/dL | Median Change from Baseline in RLP-C vs. Placebo [2]: −7.3% | RLP-C Concentration Change [2]: 18.2% | RLP-C Concentration Baseline [2]: 27.5 mg/dL | RLP-C Concentration End of Treatment [2]: 32.5 mg/dL | Median Change from Baseline in RLP-C vs. Placebo (2 g/day, ITT): −14.9% | RLP-C Concentration Change (2 g/day, ITT): 5.8% | RLP-C Concentration Baseline (2 g/day, ITT): 43.0 mg/dL | RLP-C Concentration End of Treatment (2 g/day, ITT): 44.5 mg/dL | Median Change from Baseline in RLP-C vs. Placebo (2 g/day, No Statin Use): −8.5% | RLP-C Concentration Change (2 g/day, No Statin Use): 3.0% | RLP-C Concentration Baseline (2 g/day, No Statin Use): 45.0 mg/dL | RLP-C Concentration End of Treatment (2 g/day, No Statin Use): 44.5 mg/dL | Median Change from Baseline in RLP-C vs. Placebo (2 g/day, With Statin Use): −41.6% | RLP-C Concentration Change (2 g/day, With Statin Use): 29.2% | RLP-C Concentration Baseline (2 g/day, With Statin Use): 31.5 mg/dL | RLP-C Concentration End of Treatment (2 g/day, With Statin Use): 46.5 mg/dL | median placebo-adjusted reductions in RLP-C (4 g/day treatment group, 12 weeks, p=0.0041, stated as reduction): 29.8% | reductions in RLP-C compared to baseline (4 g/day treatment group, 12 weeks, stated as reduction): 16.1% | Median Change from Baseline in RLP-C vs. Placebo [3]: −37.5% | RLP-C Concentration Change [3]: −25.4% | RLP-C Concentration Baseline [3]: 89.5 mg/dL | RLP-C Concentration End of Treatment [3]: 68.5 mg/dL | Median Change from Baseline in RLP-C vs. Placebo [4]: −26.1% | RLP-C Concentration Change [4]: −8.8% | RLP-C Concentration Baseline [4]: 34.0 mg/dL | RLP-C Concentration End of Treatment [4]: 29.0 mg/dL | Median Change from Baseline in RLP-C vs. Placebo (4 g/day, ITT): −29.8% | RLP-C Concentration Change (4 g/day, ITT): −16.1% | RLP-C Concentration Baseline (4 g/day, ITT): 45.0 mg/dL | RLP-C Concentration End of Treatment (4 g/day, ITT): 38.0 mg/dL | Median Change from Baseline in RLP-C vs. Placebo (4 g/day, No Statin Use): −21.4% | RLP-C Concentration Change (4 g/day, No Statin Use): −16.6% | RLP-C Concentration Baseline (4 g/day, No Statin Use): 45.0 mg/dL | RLP-C Concentration End of Treatment (4 g/day, No Statin Use): 39.5 mg/dL | Median Change from Baseline in RLP-C vs. Placebo (4 g/day, With Statin Use): −56.8% | RLP-C Concentration Change (4 g/day, With Statin Use): −16.1% | RLP-C Concentration Baseline (4 g/day, With Statin Use): 37.0 mg/dL | RLP-C Concentration End of Treatment (4 g/day, With Statin Use): 33.0 mg/dL
